Patent publication US6617351B1, “Amide, carbamate, and urea derivatives” (Eli Lilly and Company, priority 1998, dated 2003)

Target: T1, human GluR4B receptor (Homo sapiens, UniProt P48058)
T1 construct: expressed in transfected cells; host or cells: HEK293
Test: potentiation of agonist-induced excitability of human GluR4B receptor expressed in HEK 293 cells
Format: cell-based
Source text: The ability of compounds of formula I to potentiate glutamate receptor-mediated response may be determined using fluorescent calcium indicator dyes (Molecular Probes, Eugene, Oreg., Fluo-3) and by measuring glutamate-evoked efflux of calcium into GluR4 transfected HEK293 cells, as described in more detail below.
In one test, 96 well plates containing confluent monolayers of HEK cells stably expressing human GluR4B (obtained as described in European Patent Application Publication Number EP-A1-583917) are prepared. […]
Each test is then performed as follows. […] A second fluorescent reading is taken after 5 minutes incubation. 15 μl of 400 μM glutamate solution is then added to each well (final glutamate concentration 100 μM), and a third reading is taken. The activities of test compounds and cyclothiazide solutions are determined by subtracting the second from the third reading (fluorescence due to addition of glutamate in the presence or absence of test compound or cyclothiazide) and are expressed relative to enhance fluorescence produced by 100 μM cyclothiazide.
In another test, HEK293 cells stably expressing human GluR4 (obtained as described in European Patent Application Publication No. EP-A1-0583917) are used in the electro-physiological characterization of AMPA receptor potentiators. […] Responses to 1 mM glutamate are then determined in the presence of test compound. […]

T1 sequence (P48058 21-902): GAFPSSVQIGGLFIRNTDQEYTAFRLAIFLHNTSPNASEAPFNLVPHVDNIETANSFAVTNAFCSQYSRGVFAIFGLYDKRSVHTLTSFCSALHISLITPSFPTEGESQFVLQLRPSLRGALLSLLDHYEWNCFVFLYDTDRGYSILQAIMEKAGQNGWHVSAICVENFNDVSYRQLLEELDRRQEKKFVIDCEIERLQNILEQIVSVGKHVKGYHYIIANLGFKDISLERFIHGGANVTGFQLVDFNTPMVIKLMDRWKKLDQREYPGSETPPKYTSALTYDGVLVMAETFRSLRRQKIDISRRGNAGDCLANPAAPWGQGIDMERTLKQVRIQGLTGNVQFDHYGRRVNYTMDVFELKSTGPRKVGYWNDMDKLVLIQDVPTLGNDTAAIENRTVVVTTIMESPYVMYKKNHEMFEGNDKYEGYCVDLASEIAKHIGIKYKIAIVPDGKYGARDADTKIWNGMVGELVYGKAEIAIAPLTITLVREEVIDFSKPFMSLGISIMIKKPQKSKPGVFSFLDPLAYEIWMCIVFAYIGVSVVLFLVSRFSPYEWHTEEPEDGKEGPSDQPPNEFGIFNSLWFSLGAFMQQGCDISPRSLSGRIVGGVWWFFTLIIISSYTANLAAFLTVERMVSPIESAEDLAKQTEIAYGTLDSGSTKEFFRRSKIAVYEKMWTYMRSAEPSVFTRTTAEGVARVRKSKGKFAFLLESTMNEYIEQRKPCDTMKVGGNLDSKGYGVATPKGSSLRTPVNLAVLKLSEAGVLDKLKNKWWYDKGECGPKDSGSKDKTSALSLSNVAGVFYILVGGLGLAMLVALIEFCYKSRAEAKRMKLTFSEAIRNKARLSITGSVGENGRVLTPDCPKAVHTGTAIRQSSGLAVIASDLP

NS(=O)(=O)c1cc2c(cc1Cl)NC(C1CC3C=CC1C3)NS2(=O)=O (stereo not shown) [cyclothiazide]
potentiation of agonist-induced excitability: potentiate agonist-induced excitability
